Values quoted from earlier work in US20230181564A1, “Potent Tetrahydroquinolone Eliminates Apicomplexan Parasites” (The University of Chicago, priority 2020, published 2023).

Tested on: P. berghei sporozoites
Conditions: doses between 1 and 20 mg/kg; not the prodrug; cited from earlier work

For COc1cc2[nH]c(C)c(-c3ccc(Oc4ccc(OC(F)(F)F)cc4)cc3)c(=O)c2cc1Cl [ELQ 300], the “Efficacy in the P. berghei in vivo model” value is listed as “not effective”.
